This experiment concerns T1, SSADH (succinic semialdehyde dehydrogenase) of germinated Tartary buckwheat.
T1 construct: NAD+-dependent (printed EC 1.2.1.79 is the NADP+ class)
Nature of the experiment: NADH formation at […] nm, Lineweaver-Burk. Type of experiment: biochemical, Fagopyrum tataricum. The conditions noted are these: 1 mmol/L EDTA, 20 mmol/L beta-mercaptoethanol, 1 mmol/L PMSF, partially purified enzyme.

The structures appear in SMILES notation.

For orientation: Km means the substrate concentration at which the rate is half of its maximum. For `NC(=O)c1ccc[n+]([C@@H]2O[C@H](COP(=O)(O)OP(=O)(O)OC[C@H]3O[C@@H](n4cnc5c(N)ncnc54)[C@H](O)[C@@H]3O)[C@@H](O)[C@H]2O)c1` [NAD^+], the Km (0.2 mmol/L SSA fixed, PBS pH 8.6, 30 °C) is 636 µM. On to `O=CCCC(=O)O` [SSA], for which the Km (2 mmol/L NAD+, 1/15 mol/L PBS pH 8.6 (b78 prints mmol/L), 30 °C) was roughly 235 µM.
